Data set [1] can be described thus: physical and chemical stability of palonosetron HCl in infusion solutions (without dexamethasone). The data set is classed as physicochemical. The note with it: 5 and 30 μg/mL in 4 infusion solutions, PVC bags; 14 days at 4° C. in the dark, 48 hours at 23° C. under fluorescent light. The protocol: The physical and chemical stability of palonosetron HCl was studies in concentrations of 5 μg/mL and 30 μg/mL in 5% dextrose injection, 0.9% sodium chloride injection, 5% dextrose in 0.45% sodium chloride injection, and dextrose 5% in lactated Ringer's injection. The admixtures were evaluated over 14 days at 4° C. in the dark and for 48 hours at 23° C. under fluorescent light. Test samples of palonosetron HCl were prepared in polyvinyl chloride (PVC) bags of the infusion solutions at concentrations of 5 and 30 μg/mL. Evaluations for physical and chemical stability were performed on samples taken initially and after 1, 3, 5, 7, and 14 days of storage at 4° C. and after 1, 4, 24, and 48 hours at 23° C. Physical stability was assessed using visual observation in normal room light and using a high-intensity monodirectional light beam. In addition, turbidity and particle content were measured electronically. Chemical stability of the drug was evaluated by using a stability-indicating high performance liquid chromatographic (HPLC) analytical technique.

A short description of data set [2]: formulation optimization study (concentration ranges, 24 lots). The class given is physicochemical. The note with it: 0.05 mg/mL to 5.0 mg/mL; citrate buffer 0 to 80 mM; EDTA 0 to 0.10%. As to the method: A formulation optimization study was performed using an experimental design software. Twenty-four lots of drug product were analyzed to investigate the appropriate concentration ranges for palonosetron hydrochloride (0.05 mg/mL to 5.0 mg/mL), citrate buffer (0 to 80 mM) and EDTA (0 to 0.10%).

Data set [3] is described as follows: effect of pH on stability of formulations containing palonosetron hydrochloride at 80° C. The class given is physicochemical. The note with it: pH 2.0, 5.0, 7.4 and 10.0 tested. As to the method: A study was conducted to determine the effect of pH on formulations containing palonosetron hydrochloride, measuring the stability at 80° C. at pH 2.0, 5.0, 7.4, and 10.0.

The nature of data set [4]: physical and chemical stability of palonosetron HCl admixed with dexamethasone. The note with it: palonosetron HCl 5 or 25 μg/mL with dexamethasone 0.2, 0.4 or 0.33 mg/mL in 5% dextrose or 0.9% sodium chloride; 14 days at 4° C., 48 hours at 23° C. The class given is physicochemical. As to the method: The physical and chemical stability of palonosetron HCl 0.25 mg admixed with dexamethasone (as sodium phosphate) 10 mg or 20 mg in 5% dextrose injection or 0.9% sodium chloride injection in polyvinyl chloride (PVC) minibags, and also admixed with dexamethasone (as sodium phosphate) 3.3 mg in 5% dextrose injection or 0.9% sodium chloride injection in polypropylene syringes at 4° C. in the dark for 14 days and at 23° C. exposed to normal laboratory fluorescent light over 48 hours, was studied. Test samples of palonosetron HCl 5 μg/mL with dexamethasone (as sodium phosphate) 0.2 mg/mL and also 0.4 mg/mL were prepared in polyvinyl chloride (PVC) minibags of each infusion solution. Additionally, palonosetron HCl 25 μg/mL with dexamethasone (as sodium phosphate) 0.33 mg/mL in each infusion solution were prepared as 10 mL of test solution in 20-mL polypropylene syringes. […] Physical stability was assessed using visual observation in normal room light and using a high-intensity monodirectional light beam. In addition, turbidity and particle content were measured electronically. Chemical stability of the drug was evaluated by using a stability-indicating high performance liquid chromatographic (HPLC) analytical technique.

The conditions of data set [5]: clinical investigations; cited from earlier work.
The target in data set [6] is T1, 5-HT3 receptor (Homo sapiens, UniProt P46098).
T1 sequence (P46098 24-478): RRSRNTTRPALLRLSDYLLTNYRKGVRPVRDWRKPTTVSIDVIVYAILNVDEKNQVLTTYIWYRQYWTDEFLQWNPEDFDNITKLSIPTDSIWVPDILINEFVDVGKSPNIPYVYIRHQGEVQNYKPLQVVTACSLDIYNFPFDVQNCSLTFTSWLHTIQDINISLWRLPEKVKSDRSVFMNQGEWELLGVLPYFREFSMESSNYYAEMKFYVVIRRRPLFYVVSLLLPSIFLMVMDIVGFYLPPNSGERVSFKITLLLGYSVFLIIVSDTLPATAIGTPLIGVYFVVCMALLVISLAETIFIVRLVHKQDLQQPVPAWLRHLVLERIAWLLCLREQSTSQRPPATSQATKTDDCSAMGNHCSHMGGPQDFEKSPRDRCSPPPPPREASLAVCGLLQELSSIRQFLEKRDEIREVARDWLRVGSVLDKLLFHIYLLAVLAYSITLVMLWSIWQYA
The note with it: clinical investigations; cited from earlier work.

`Cl.O=C1c2cccc3c2[C@H](CCC3)CN1[C@@H]1CN2CCC1CC2` [palonosetron hydrochloride]: in data set [1], the “chemical stability (loss of drug, HPLC)” value is “little or no loss” and the “physical stability (visual, turbidity, particle content)” value is on record as “physically stable throughout the study”. The “chemical stability as a function of palonosetron concentration” value in data set [2] is listed as “greatest stability seen at the lowest palonosetron concentrations”. In data set [3], the “pH of greatest stability” value is given as “most stable at pH 5.0”. In addition, in data set [4], the “physical compatibility (visual, turbidity, particle content)” value was “physically compatible throughout the study”.

As for `O=C1c2cccc3c2[C@H](CCC3)CN1[C@@H]1CN2CCC1CC2` [palonosetron, (3aS)-2,3,3a,4,5,6-Hexahydro-2-[(S)-1-Azabicyclo[2.2.2]oct-3-yl]2,3,3a,4,5,6-hexahydro-1-oxo-1Hbenz[de]isoquinoline], in data set [5], the half-life entry is “about 40 hours”. Further, in data set [6], the “potency relative to most existing 5-HT3 receptor antagonists” value was “an order of magnitude more potent than most existing 5-HT3 receptor antagonists” and the “reduction of delayed-onset nausea induced by chemotherapeutic agents” value is given as “effective to reduce delayed-onset nausea”.

In the case of `C[C@@H]1C[C@H]2[C@@H]3CCC4=CC(=O)C=C[C@]4(C)[C@@]3(F)[C@@H](O)C[C@]2(C)[C@@]1(O)C(=O)CO` [dexamethasone], the “chemical stability (loss of drug, HPLC)” value in data set [4] is recorded as “little or no loss”.

Source of the values: patent US9439854B2, “Liquid pharmaceutical formulations of palonosetron” (Helsinn Healthcare SA, priority 2003, dated 2016).
